From patent US20240326697A1, “SOLID FORMS OF SELECTIVE ANDROGEN RECEPTOR MODULATORS” (priority 2007, published 2024)
Values joined by “and” are separate entries in the source; they are usually repeats but may differ in a detail not shown here. Equal entries are not always repeated. Marks after values point to notes of the source that are not given here.

How the values were obtained:
Assay type in all cases: physicochemical
[1] = Dynamic vapor sorption (DVS); conditions: 25° C.
Procedure: Dynamic vapor sorption quantification relates the mass of water absorbed and subsequently desorbed during the crystallization process. In order to define whether batch P1, P2 and P4 are hydrated polymorphs, DVS measurements were conducted (FIG. 9). A sample (13 to 14 mg) was placed on a Pt pan, and the sample was allowed to equilibrate at 25° C./50% r.h. before starting a pre-defined humidity program (1.0 hours 50%, from 50% r.h. to 95% r.h.: 5% r.h./hour, 10 hours at 95% r.h., from 95% r.h. to 0% r.h.: 5% r.h./hour, 10 hours at 0% r.h., from 0% r.h. to 50% r.h.: 5% r.h./hour, 1 hours at 50% r.h.

[2] = Water solubility of solid forms A and B′ (suspension shaken, filtered, HPLC; residue by Raman); conditions: 22° C.; for Solid residue: Raman, rough estimate; for solubility: mean of two measurements (±standard deviation)
Procedure: During the following experiments: suspension equilibration, precipitation experiment, recrystallization, relative stability experiments and water solubility experiment, a filtration step was conducted. Centrifugal filter devices: Ultrafree-CL (0.22 la,m), Millipore; Centrifuge type or Eppendorf 5804R were used at a temperature of 22° C. and centrifugation program of 2 min 3000 rpm.
HPLC was used to analyse the purity of S-1. HP 1090M HPLC machine was used with the following conditions: • Column: Symmetry Shield RP18, 3.9×150 mm, 5 μm • Column temperature: 35° C. • Injection volume: 10 μL • Solvent: acetonitrile+water 1:1 v/v • Mobile phase A: 0.1% TFA-water • Mobile phase B: 0.1% TFA-acetonitrile • Flow rate: 1 mL/min. • Detection: UV at 271 nm • Run time: 21 min. • Retention time (S-1): 10.7 min.
Suspensions of the solid forms (25 or 50 mg in 3.5 or 7.0 ml bidistilled water) were shaken (800 rpm) and filtered after 0.5 h, 1.5 h, 4 h and 20 h. After filtration the solid residue was checked by Raman spectroscopy and the concentration in the clear solution was determined by HPLC.

[3] = Measurement of the approximate solubility (solvent added in steps to the solid); conditions: ethyl acetate/n-heptane 1:2 v/v, 23° C. (B′: solid form transformation into solid form A)
Procedure: To determine the approximate solubility at room temperature, the solvent was added in steps to the solid material. After every addition, the sample was well stirred. The addition of solvent was continued until complete dissolution or until 15 ml of solvent was added.

[4] = Suspension equilibration experiments
Procedure: Suspension equilibration experiments were carried out with 81-128 mg of the compound. The suspensions were stirred with a magnetic stirrer. The samples obtained after filtration were air dried at ambient temperature for a short time only to prevent possible desolvation of labile hydrates or solvates.

[5] = Relative stability of polymorphic forms under dry conditions (heating, micronization); conditions: heating to 110° C. in the presence of D
Procedure: (§1) Thermal analysis was carried out with a Perkin Elmer DSC7 with the following experimental conditions: 3 to 6 mg sample mass, closed gold sample pan, temperature range −50° C. to 120° C., heating rate 20 K/min. The samples were weighed in air or dry N2 atmosphere. Additional thermal analysis was conducted using a TA Instruments Q1000 DSC using hermetic aluminum pans under various conditions.
Thus forms A and B″ can be considered to be practically stable at ambient temperature. […] Micronization of the polymorph A particles under dry conditions also produced ˜25% conversion to B″.

[6] = Relative stability of polymorphic forms under humid conditions (storage, DSC); conditions: 50° C./75% RH as well as ambient/75% RH, ambient/100% RH, 30° C./75% RH and 50° C./0% RH
Procedure: as §1
Polymorph A stays stable in its A form for at least 7 days under storage conditions of ambient temperature/75% RH (Relative Humidity), ambient temperature/100% RH, 30° C./75% RH and 50° C./0% RH.
In fact, polymorph D in the presence of moisture acts as the seed for the crystallization process and drives the transformation of polymorphs A and B′ into D, similar to its role in seeding the A to D crystallization in dry conditions. […] The amount of polymorph D initially added to the sample is very small that it isn't detectable by the DSC with heating rate of 10° C./min. […] The transformation process is speeded up in FIG. 17G (b) by storing the sample in water at 50° C. […] Further work has shown that the A and B′ convert to D in the presence of moisture at lower temperatures also albeit at slower rates.

[7] = Relative stability of toluene solvate in toluene / solubility in toluene
Procedure: Recrystallization of S-1 from a solvent/antisolvent system that uses toluene as the antisolvent produces the toluene solvate. Toluene solvate has a melting point near 100° C. with the enthalpy of melting 70±5 J/g.

## C[C@](O)(COc1ccc(C#N)cc1)C(=O)Nc1ccc(C#N)c(C(F)(F)F)c1 [Form B′, (S)-N-(4-cyano-3-(trifluoromethyl)phenyl)-3-(4-cyanophenoxy)-2-hydroxy-2-methylpropanamide]
[1]; listed as solid form B′
  maximum water content at 94% r.h.: approx. 2.4%
[2]; stated as embodiment
  solubility in water: 20 to 30 µg/mL and 23 to 27 µg/mL
[2]; water, 0.5 h
  Solid residue: B′
[2]; water, 1.5 h
  Solid residue: B′
[2]; water, 4.0 h
  Solid residue: B′
[2]; water, 20 h
  Solid residue: B′
[2]; water, 20 h suspension equilibration
  pH of the solution: d) pH of the solution: 8.7
[2]; water, suspension equilibration time 0.5 h
  solubility: 27.4 ± 0.9 mg/1000 ml
[2]; water, suspension equilibration time 1.5 h
  solubility: 27.3 ± 0.8 mg/1000 ml
[2]; water, suspension equilibration time 1.5 h, listed as B′
  solubility: 27.3±0.8 mg/1000 ml
[2]; water, suspension equilibration time 4.0 h
  solubility: 25.6 ± 0.1 mg/1000 ml
[2]; water, suspension equilibration time 20 h
  solubility: 26.7 ± 0.3 ^c) mg/1000 ml
[3]
  solubility: >9 solid form mg/ml
[4]; ethyl acetate + n-heptane 1:2 v/v 81/1.7 mg/ml, stirred 2 h/23° C.
  Form produced: transformed into solid form A
[4]; ethyl acetate + n-pentane 1:2 v/v 101/1.0 mg/ml, stirred 22 h/23° C.
  Form produced: transformed into solid form A

## C[C@](O)(COc1ccc(C#N)cc1)C(=O)Nc1ccc(C#N)c(C(F)(F)F)c1 [Form B″, (S)-N-(4-cyano-3-(trifluoromethyl)phenyl)-3-(4-cyanophenoxy)-2-hydroxy-2-methylpropanamide]
[5]
  solid form change on heating: rearrange into D

## C[C@](O)(COc1ccc(C#N)cc1)C(=O)Nc1ccc(C#N)c(C(F)(F)F)c1 [Form D, (S)-N-(4-cyano-3-(trifluoromethyl)phenyl)-3-(4-cyanophenoxy)-2-hydroxy-2-methylpropanamide]
[6]
  solid form stability on storage: stable
[6]; listed as Polymorph D
  solid form stability on storage: remains stable
[7]; sonication of the suspension for 10 minutes
  transformation in toluene suspension: partial transformation to the toluene solvate
[7]; suspension (50 mg/mL) in toluene for 4 days, both at ambient temperature and 50° C.
  transformation in toluene suspension: no noticeable transformation from form D to the toluene solvate

## C[C@](O)(COc1ccc(C#N)cc1)C(=O)Nc1ccc(C#N)c(C(F)(F)F)c1 [Form S-1, (S)-N-(4-cyano-3-(trifluoromethyl)phenyl)-3-(4-cyanophenoxy)-2-hydroxy-2-methylpropanamide]
[7]; toluene, organic solvent or mixture
  solubility: < 2000 µg/mL

## C[C@](O)(COc1ccc(C#N)cc1)C(=O)Nc1ccc(C#N)c(C(F)(F)F)c1 [Form S-1-P1, (S)-N-(4-cyano-3-(trifluoromethyl)phenyl)-3-(4-cyanophenoxy)-2-hydroxy-2-methylpropanamide]
[1]
  maximum water content at 93% r.h.: 1.5%
  water content at 50% r.h.: water content at 50% r.h.: 0.4%

## C[C@](O)(COc1ccc(C#N)cc1)C(=O)Nc1ccc(C#N)c(C(F)(F)F)c1 [Form S-1-P2, (S)-N-(4-cyano-3-(trifluoromethyl)phenyl)-3-(4-cyanophenoxy)-2-hydroxy-2-methylpropanamide]
[1]
  maximum water content at 95% r.h.: 0.6%
  water content at 50% r.h.: water content at 50% r.h.: 0.3%

## C[C@](O)(COc1ccc(C#N)cc1)C(=O)Nc1ccc(C#N)c(C(F)(F)F)c1 [Form S-1-P4, (S)-N-(4-cyano-3-(trifluoromethyl)phenyl)-3-(4-cyanophenoxy)-2-hydroxy-2-methylpropanamide]
[1]
  maximum water content at 94% r.h.: r.h.: ~2.4%
  water content at 50% r.h.: water content at 50% r.h.: ~0.8%
